Measurements from US20040242665A1, “Hair composition containing a styrylpyrazole compound, and use thereof for stimulating or inducing hair or eyelash growth and/or reducing loss thereof” (SOCIETE L'OREAL S.A., priority 2002, published 2004).

Tests used:
PGF synthase = target: T1, PGF synthase (Homo sapiens, UniProt P42330); experiment: Test on PGF synthase (spectrophotometric, 340 nm, 9,10-phenanthrenequinone and NADPH); format: biochemical; settings: pH 6.5 Tris buffer, 37° C., 20 μM 9,10-phenanthrenequinone, 100 μM β-NADPH; read-out: Inhibition of PGF synthase IC50fs
T1 construct: made in house
T1 sequence (P42330 1-323): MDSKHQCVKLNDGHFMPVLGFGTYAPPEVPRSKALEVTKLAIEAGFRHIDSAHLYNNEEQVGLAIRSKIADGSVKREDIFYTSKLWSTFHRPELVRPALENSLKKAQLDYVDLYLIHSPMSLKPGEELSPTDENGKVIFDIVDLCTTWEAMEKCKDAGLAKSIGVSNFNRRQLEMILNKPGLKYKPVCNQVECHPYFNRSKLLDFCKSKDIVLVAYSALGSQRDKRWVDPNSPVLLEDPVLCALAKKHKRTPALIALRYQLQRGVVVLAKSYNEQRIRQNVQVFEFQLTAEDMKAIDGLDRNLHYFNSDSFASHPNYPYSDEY
Protocol: The enzyme PGFS is obtained as described in document FR-A-02/05067, at a concentration of 0.5 mg/ml, as a suspension in a suitable medium, and blocked at −80° C. For the purposes of the test, this suspension is thawed and stored in ice.
In parallel, a 100 mM, pH 6.5 Tris buffer containing 20 μm of 9,10-phenanthrenequinone* (P2896, Sigma-Aldrich, L'isle D'Abeau Chesne, BP 701, 38297, Saint Quentin Fallavier) and 100 μM of β-NADPH (N1630, Sigma-Aldrich, L'isle D'Abeau Chesne, BP 701, 38297, Saint Quentin Fallavier) is prepared in a brown flask (protected from light).
*A stock solution with a titre of 1 mM is prepared in absolute ethanol and brought to 40° C.; the flask is placed in an ultrasound tank to facilitate the dissolution of the product.
(§1) 0.950 ml of this buffer (brought to 37° C. beforehand) is introduced into the cuvette of a spectrophotometer (Perkin-Elmer, Lambda 2) thermostatically maintained at 37° C., the measuring wavelength of which is set at 340 nm. 0.05 ml of enzymatic suspension at 37° C. is introduced into the cuvette concomitantly with the recording (corresponding to a reduction in the optical density at 340 nm). The maximum reaction rate is recorded.
The test values (containing compound (I)) are compared with the control value (without compound (I)); the results indicated represent the concentration at which compound (I) inhibits 50% of the enzymatic activity of PGFS, noted as IC50fs.

15-PGDH = target: T2, 15-PGDH (Homo sapiens, UniProt P15428); experiment: Test on 15-PGDH (spectrophotometric, 340 nm, PGE2 and NAD); format: biochemical; settings: for IC50: pH 7.4 Tris buffer, 37° C., 50 μM prostaglandin E2, read-out: Inhibition of 15-PGDH IC50dh
T2 construct: made in house
T2 sequence (P15428 1-266): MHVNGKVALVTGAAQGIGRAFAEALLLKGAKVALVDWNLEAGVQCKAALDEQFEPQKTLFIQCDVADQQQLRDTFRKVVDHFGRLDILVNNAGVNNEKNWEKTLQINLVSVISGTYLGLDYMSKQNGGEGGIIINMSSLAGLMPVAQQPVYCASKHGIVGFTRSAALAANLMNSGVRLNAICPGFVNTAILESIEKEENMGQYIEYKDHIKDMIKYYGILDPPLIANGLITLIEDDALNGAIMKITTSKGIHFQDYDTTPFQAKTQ
Protocol: The enzyme 15-PGDH is obtained as described in patent application FR 02/05067 filed in the name of L'Oreal, as a suspension in a medium adjusted to a concentration of 0.3 mg/ml and then blocked at −80° C. For the purposes of the test, this suspension is thawed and stored in ice.
In parallel, a 100 mM, pH 7.4 Tris buffer containing 0.1 mM of dithiothreitol (D5545, Sigma-Aldrich, L'isle D'Abeau Chesne, BP 701, 38297, Saint Quentin Fallavier), 1.5 mM of P-NAD (N6522, Sigma-Aldrich, L'isle D'Abeau Chesne, BP 701, 38297, Saint Quentin Fallavier), and 50 μM of prostaglandin E2 (P4172, Sigma-Aldrich, L'isle D'Abeau Chesne, BP 701, 38297, Saint Quentin Fallavier) is prepared.
as §1, with “0.965” for “0.950”, “0.035” for “0.05”, “an increase” for “a reduction”

| Structure (SMILES) | IC50 (PGF synthase) [µM] | IC50 (15-PGDH) [µM] | Selectivity (IC50fs/IC50dh ratio) (15-PGDH; 15-PGDH relative to PGF synthase) |
| --- | --- | --- | --- |
| N#C/C(=C\c1c(Cl)cccc1Cl)c1nn(CCO)c(N)c1C#N [Compound 1a] | > 50 | 3 |  |
| N#C/C(=C\c1ccccc1Cl)c1nn(-c2ccccc2)c(N)c1C#N [Compound 7] | > 50 | 3 |  |
| N#C/C(=C\c1c(Cl)cccc1Cl)c1nn(-c2ccccc2)c(N)c1C#N [Compound 6] | > 50 | 0.8 |  |
| COc1ccccc1/C=C(\C#N)c1nn(-c2ccccc2)c(N)c1C#N [Compound 9] |  | 5 |  |
| N#C/C(=C\c1ccccc1)c1nn(-c2ccccc2)c(N)c1C#N [Compound 8] | > 75 | 50 | >1.5 |
